# The source made the active and inactive calls. The calls are words filed in the database; no cut-off is given here.
# Assays:
# Cryptococcus neoformans [1] = experiment: Antifungal activity against fluconazole-resistant Cryptococcus neoformans ATCC 32719 assessed as inhibition of fungal growth incubated for 24 to 72 hrs; assay type: functional; settings: time 24-72 hrs
# Aspergillus fumigatus [2] = experiment: Antifungal activity against Aspergillus fumigatus GIMCC 3.19 assessed as Polyoxin B MIC incubated for 24 hrs in presence of fluconazole by half broth dilution based checkerboard method; assay type: functional
# Aspergillus fumigatus [3] = experiment: Antifungal activity against Aspergillus fumigatus GIMCC 3.19 incubated for 24 hrs by half broth dilution based checkerboard method; assay type: functional
# Candida albicans [4] = experiment: Antifungal activity against micafungin-resistant Candida albicans ATCC 76615 assessed as inhibition of fungal growth incubated for 24 to 72 hrs; assay type: functional; settings: time 24-72 hrs
# A549 [5] = experiment: Cytotoxicity against human A549 cells assessed as reduction in cell viability at 32 microg/ml incubated for 24 hrs by CCK-8 assay relative to control; assay type: toxicity, cell-based; settings: a549, 24 h, at 32 µg/mL
# Aspergillus flavus [6] = experiment: Antifungal activity against Aspergillus flavus ATCC 16870 incubated for 24 hrs by half broth dilution based checkerboard method; assay type: functional
# Aspergillus flavus [7] = experiment: Antifungal activity against drug-resistant Aspergillus flavus ATCC 16870 assessed as inhibition of cell wall synthesis in presence of sorbitol incubated for 24 hrs; assay type: functional
# Aspergillus flavus [8] = experiment: Synergistic antifungal activity against Aspergillus flavus ATCC 16870 assessed as fractional inhibitory concentration index in presence of fluconazole incubated for 24 hrs by half broth dilution based checkerboard method; assay type: functional
# Candida albicans [9] = experiment: Antifungal activity against Candida albicans ATCC 76615 assessed as inhibition of growth incubated for 24 hrs by two-fold serial dilution method; assay type: functional
# Candida albicans [10] = experiment: Antifungal activity against Candida albicans ATCC 76615 incubated for 24 hrs by half broth dilution based checkerboard method; assay type: functional
# A549 [11] = experiment: Cytotoxicity against human A549 cells assessed as reduction in cell viability at 128 microg/ml incubated for 24 hrs by CCK-8 assay relative to control; assay type: toxicity, cell-based; settings: a549, 24 h, at 128 µg/mL
# Cryptococcus neoformans [12] = experiment: Antifungal activity against Cryptococcus neoformans ATCC 32719 assessed as fluconazole MIC incubated for 24 hrs in presence of fluconazole by half broth dilution based checkerboard method; assay type: functional
# Aspergillus flavus [13] = experiment: Antifungal activity against Aspergillus flavus ATCC 16870 assessed as Polyoxin B MIC incubated for 24 hrs in presence of fluconazole by half broth dilution based checkerboard method; assay type: functional
# Cryptococcus neoformans [14] = experiment: Synergistic antifungal activity against Cryptococcus neoformans ATCC 32719 assessed as fractional inhibitory concentration index in presence of Polyoxin B incubated for 24 hrs by half broth dilution based checkerboard method; assay type: functional
# Cryptococcus neoformans [15] = experiment: Antifungal activity against drug-resistant Cryptococcus neoformans ATCC 32719 assessed as inhibition of cell wall synthesis in presence of sorbitol incubated for 24 hrs; assay type: functional
# Aspergillus fumigatus [16] = experiment: Antifungal activity against fluconazole-resistant Aspergillus fumigatus GIMCC 3.19 assessed as inhibition of fungal growth incubated for 24 to 72 hrs; assay type: functional; settings: time 24-72 hrs
# Aspergillus flavus [17] = experiment: Antifungal activity against Aspergillus flavus ATCC 16870 assessed as inhibition of growth incubated for 24 hrs by two-fold serial dilution method; assay type: functional
# Cryptococcus neoformans [18] = experiment: Synergistic antifungal activity against Cryptococcus neoformans ATCC 32719 assessed as fractional inhibitory concentration index in presence of fluconazole incubated for 24 hrs by half broth dilution based checkerboard method; assay type: functional
# Aspergillus flavus [19] = experiment: Antifungal activity against Aspergillus flavus ATCC 16870 assessed as fluconazole MIC incubated for 24 hrs in presence of fluconazole by half broth dilution based checkerboard method; assay type: functional
# Aspergillus flavus [20] = experiment: Antifungal activity against fluconazole-resistant Aspergillus flavus ATCC 16870 assessed as inhibition of fungal growth incubated for 24 to 72 hrs; assay type: functional; settings: time 24-72 hrs
# Aspergillus fumigatus [21] = experiment: Antifungal activity against Aspergillus fumigatus GIMCC 3.19 assessed as inhibition of growth incubated for 24 hrs by two-fold serial dilution method; assay type: functional
# Cryptococcus neoformans [22] = experiment: Antifungal activity against Cryptococcus neoformans ATCC 32719 assessed as Polyoxin B MIC incubated for 24 hrs in presence of fluconazole by half broth dilution based checkerboard method; assay type: functional
# Candida albicans [23] = experiment: Antifungal activity against Candida albicans ATCC 76615 assessed as fluconazole MIC incubated for 24 hrs in presence of fluconazole by half broth dilution based checkerboard method; assay type: functional
# Cryptococcus neoformans [24] = experiment: Antifungal activity against Cryptococcus neoformans ATCC 32719 assessed as inhibition of growth incubated for 24 hrs by two-fold serial dilution method; assay type: functional
# Aspergillus fumigatus [25] = experiment: Synergistic antifungal activity against Aspergillus fumigatus GIMCC 3.19 assessed as fractional inhibitory concentration index in presence of Polyoxin B incubated for 24 hrs by half broth dilution based checkerboard method; assay type: functional
# Candida albicans [26] = experiment: Antifungal activity against drug-resistant Candida albicans ATCC 76615 assessed as inhibition of cell wall synthesis in presence of sorbitol incubated for 24 hrs; assay type: functional
# [27] = Non-competitive inhibition of chitin synthase extracted from Candida tropicalis ATCC 750 using UDP-GlcNAc as substrate assessed as inhibition constant by Lineweaver-Burk plot analysis
# [28] = Inhibition of chitin synthase extracted from Candida tropicalis ATCC 750 using UDP-GlcNAc as substrate assessed as inhibition rate by TMB based microplate analyzer relative to control
# Candida albicans [29] = experiment: Antifungal activity against Candida albicans ATCC 76615 assessed as Polyoxin B MIC incubated for 24 hrs in presence of fluconazole by half broth dilution based checkerboard method; assay type: functional
# Cryptococcus neoformans [30] = experiment: Antifungal activity against Cryptococcus neoformans ATCC 32719 incubated for 24 hrs by half broth dilution based checkerboard method; assay type: functional
# Aspergillus fumigatus [31] = experiment: Antifungal activity against Aspergillus fumigatus GIMCC 3.19 assessed as fluconazole MIC incubated for 24 hrs in presence of fluconazole by half broth dilution based checkerboard method; assay type: functional
# Aspergillus flavus [32] = experiment: Synergistic antifungal activity against Aspergillus flavus ATCC 16870 assessed as fractional inhibitory concentration index in presence of Polyoxin B incubated for 24 hrs by half broth dilution based checkerboard method; assay type: functional
# Candida tropicalis [33] = experiment: Inhibition of chitin synthase extracted from Candida tropicalis ATCC 750 using UDP-GlcNAc as substrate assessed as inhibition rate at 300 ug/ml by TMB based microplate analyzer relative to control; settings: dose 300.0 µg/ml
# A549 [34] = experiment: Cytotoxicity against human A549 cells assessed as reduction in cell viability at 8 microg/ml incubated for 24 hrs by CCK-8 assay relative to control; assay type: toxicity, cell-based; settings: a549, 24 h, at 8 µg/mL
# A549 [35] = experiment: Cytotoxicity against human A549 cells assessed as reduction in cell viability at 16 microg/ml incubated for 24 hrs by CCK-8 assay relative to control; assay type: toxicity, cell-based; settings: a549, 24 h, at 16 µg/mL
# Candida albicans [36] = experiment: Synergistic antifungal activity against Candida albicans ATCC 76615 assessed as fractional inhibitory concentration index in presence of Polyoxin B incubated for 24 hrs by half broth dilution based checkerboard method; assay type: functional
# Candida tropicalis [37] = experiment: Non-competitive inhibition of chitin synthase extracted from Candida tropicalis ATCC 750 using UDP-GlcNAc as substrate assessed as decrease in Vm with constant Km at 0 to 0.15 mM by Lineweaver-Burk plot analysis; settings: dose 0-0.15 mM
# A549 [38] = experiment: Cytotoxicity against human A549 cells assessed as reduction in cell viability at 64 microg/ml incubated for 24 hrs by CCK-8 assay relative to control; assay type: toxicity, cell-based; settings: a549, 24 h, at 64 µg/mL
# Aspergillus fumigatus [39] = experiment: Synergistic antifungal activity against Aspergillus fumigatus GIMCC 3.19 assessed as fractional inhibitory concentration index in presence of fluconazole incubated for 24 hrs by half broth dilution based checkerboard method; assay type: functional
# Candida albicans [40] = experiment: Antifungal activity against fluconazole-resistant Candida albicans ATCC 76615 assessed as inhibition of fungal growth incubated for 24 to 72 hrs; assay type: functional; settings: time 24-72 hrs
# A549 [41] = experiment: Cytotoxicity against human A549 cells assessed as reduction in cell viability at 4 microg/ml incubated for 24 hrs by CCK-8 assay relative to control; assay type: toxicity, cell-based; settings: a549, 24 h, at 4 µg/mL
# Aspergillus fumigatus [42] = experiment: Antifungal activity against drug-resistant Aspergillus fumigatus GIMCC 3.19 assessed as inhibition of cell wall synthesis in presence of sorbitol incubated for 24 hrs; assay type: functional
# Candida albicans [43] = experiment: Synergistic antifungal activity against Candida albicans ATCC 76615 assessed as fractional inhibitory concentration index in presence of fluconazole incubated for 24 hrs by half broth dilution based checkerboard method; assay type: functional
smiles,measurement,setting,value
O=C(/C=C/C(=O)Nc1nc2ccccc2s1)Nc1ccc2c(c1)NC(=O)C1(CCNC1=O)C2 (racemic),MIC,Cryptococcus neoformans [1],64 µg/mL
same,MIC,Aspergillus fumigatus [2],2 µg/mL
same,MIC,Aspergillus fumigatus [3],2 µg/mL
same,MIC,Candida albicans [4],64 µg/mL
same,Activity,A549 [5],87.9%
same,MIC,Aspergillus flavus [6],4 µg/mL
same,MIC,Aspergillus flavus [7],128 µg/mL
same,fractional inhibitory concentration index (FICI),Aspergillus flavus [8],0.75
same,MIC,Candida albicans [9],8 µg/mL
same,MIC,Candida albicans [10],2 µg/mL
same,Activity,A549 [11],68.4%
same,MIC,Cryptococcus neoformans [12],4 µg/mL
same,MIC,Aspergillus flavus [13],8 µg/mL
same,fractional inhibitory concentration index (FICI),Cryptococcus neoformans [14],1
same,MIC,Cryptococcus neoformans [15],64 µg/mL
same,MIC,Aspergillus fumigatus [16],32 µg/mL
same,MIC,Aspergillus flavus [17],16 µg/mL
same,fractional inhibitory concentration index (FICI),Cryptococcus neoformans [18],1
same,MIC,Aspergillus flavus [19],2 µg/mL
same,MIC,Aspergillus flavus [20],32 µg/mL
same,MIC,Aspergillus fumigatus [21],4 µg/mL
same,MIC,Cryptococcus neoformans [22],4 µg/mL
same,MIC,Candida albicans [23],2 µg/mL
same,MIC,Cryptococcus neoformans [24],4 µg/mL
same,fractional inhibitory concentration index (FICI),Aspergillus fumigatus [25],1.5
same,MIC,Candida albicans [26],128 µg/mL
same,Ki,[27],114 µM
same,IC50,[28],104 µM
same,MIC,Candida albicans [29],2 µg/mL
same,MIC,Cryptococcus neoformans [30],2 µg/mL
same,MIC,Aspergillus fumigatus [31],4 µg/mL
same,fractional inhibitory concentration index (FICI),Aspergillus flavus [32],0.75
same,inhibition,Candida tropicalis [33],82.5%
same,Activity,A549 [34],90.5%
same,Activity,A549 [35],91.1%
same,fractional inhibitory concentration index (FICI),Candida albicans [36],0.5
same,inhibition,Candida tropicalis [37],Active
same,Activity,A549 [38],79.1%
same,fractional inhibitory concentration index (FICI),Aspergillus fumigatus [39],1.5
same,MIC,Candida albicans [40],64 µg/mL
same,Activity,A549 [41],93.5%
same,MIC,Aspergillus fumigatus [42],64 µg/mL
same,fractional inhibitory concentration index (FICI),Candida albicans [43],0.5
Cc1cc([N+](=O)[O-])ccc1NC(=O)C1CCN(CC(=O)Nc2ccc3c(c2)NC(=O)C2(CCNC2=O)C3)CC1 (racemic),MIC,Cryptococcus neoformans [1],64 µg/mL
same,MIC,Aspergillus fumigatus [2],16 µg/mL
same,MIC,Aspergillus fumigatus [3],16 µg/mL
same,MIC,Candida albicans [4],64 µg/mL
same,Activity,A549 [5],91.9%
same,MIC,Aspergillus flavus [6],16 µg/mL
same,MIC,Aspergillus flavus [7],256 µg/mL
same,fractional inhibitory concentration index (FICI),Aspergillus flavus [8],1.5
same,MIC,Candida albicans [9],8 µg/mL
same,MIC,Candida albicans [10],8 µg/mL
same,Activity,A549 [11],73.5%
same,MIC,Cryptococcus neoformans [12],1.5 µg/mL
same,MIC,Aspergillus flavus [13],16 µg/mL
same,fractional inhibitory concentration index (FICI),Cryptococcus neoformans [14],1.5
same,MIC,Cryptococcus neoformans [15],512 µg/mL
same,MIC,Aspergillus fumigatus [16],32 µg/mL
same,MIC,Aspergillus flavus [17],16 µg/mL
same,fractional inhibitory concentration index (FICI),Cryptococcus neoformans [18],0.75
same,MIC,Aspergillus flavus [19],0.625 µg/mL
same,MIC,Aspergillus flavus [20],32 µg/mL
same,MIC,Aspergillus fumigatus [21],16 µg/mL
same,MIC,Cryptococcus neoformans [22],8 µg/mL
same,MIC,Candida albicans [23],1.25 µg/mL
same,MIC,Cryptococcus neoformans [24],8 µg/mL
same,fractional inhibitory concentration index (FICI),Aspergillus fumigatus [25],2
same,MIC,Candida albicans [26],256 µg/mL
same,Ki,[27],108 µM
same,IC50,[28],93 µM
same,MIC,Candida albicans [29],8 µg/mL
same,MIC,Cryptococcus neoformans [30],8 µg/mL
same,MIC,Aspergillus fumigatus [31],0.75 µg/mL
same,fractional inhibitory concentration index (FICI),Aspergillus flavus [32],0.75
same,inhibition,Candida tropicalis [33],85.2%
same,Activity,A549 [34],93.8%
same,Activity,A549 [35],92.2%
same,fractional inhibitory concentration index (FICI),Candida albicans [36],0.625
same,inhibition,Candida tropicalis [37],Active
same,Activity,A549 [38],87.6%
same,fractional inhibitory concentration index (FICI),Aspergillus fumigatus [39],2
same,MIC,Candida albicans [40],64 µg/mL
same,Activity,A549 [41],97.1%
same,MIC,Aspergillus fumigatus [42],128 µg/mL
same,fractional inhibitory concentration index (FICI),Candida albicans [43],1
NC(=O)OC[C@H](O)[C@@H](O)[C@H](N)C(=O)N[C@H](C(=O)O)[C@H]1O[C@@H](n2cc(CO)c(=O)[nH]c2=O)[C@H](O)[C@@H]1O [POLYOXIN B],MIC,Aspergillus fumigatus [3],8 µg/mL
same,Activity,A549 [5],92.7%
same,MIC,Aspergillus flavus [6],16 µg/mL
same,MIC,Aspergillus flavus [7],512 µg/mL
same,MIC,Candida albicans [9],16 µg/mL
same,MIC,Candida albicans [10],16 µg/mL
same,Activity,A549 [11],84.3%
same,MIC,Cryptococcus neoformans [15],256 µg/mL
same,MIC,Aspergillus flavus [17],16 µg/mL
same,MIC,Aspergillus fumigatus [21],8 µg/mL
same,MIC,Cryptococcus neoformans [24],16 µg/mL
same,IC50,[28],82 µM
same,MIC,Cryptococcus neoformans [30],16 µg/mL
same,inhibition,Candida tropicalis [33],86.4%
same,Activity,A549 [34],98.8%
same,Activity,A549 [35],97.9%
same,Activity,A549 [38],91.2%
same,Activity,A549 [41],99.2%
same,MIC,Aspergillus fumigatus [42],128 µg/mL
